Test results: patent US11203608B2, “Platinum-containing compounds, and related compositions and uses thereof” (Massachusetts Institute of Technology, priority 2019, dated 2021)

Assays:
[1] = system: cisplatin-resistant A2780CIS human ovarian cancer cell line; assay: Cell growth, resazurin assay, A2780CIS; type: cell-based; settings: 72-h exposure
Description: (§4) Cells were cultured in 10 mL of Advanced DMEM/F12 (ADMEM/F12), supplemented with 5% FBS, 2 mM GlutaMAX, and 1% Penicillin-Streptomycin in 10 cm tissue culture plates. Cells were then plated into 96-well plates with about 2.5×10^3 cells per well. Cells were plated with 200 μL per well of ADMEM/F12 supplemented with 5% FBS, 2 mM GlutaMAX, and 1% Penicillin-Streptomycin. Cells were treated with dose responses of doxorubicin, oxaliplatin, or doxaliplatin upon plating. The cells were then cultured for 72 hours following drug treatment, and cell growth was measured by resazurin assay.

[2] = system: APC−/−; TdTomato+ (A-tdt) organoids; assay: Viability of A-tdt murine colorectal cancer organoids, resazurin assay; type: cell-based; settings: 72-h exposure (table title); read-out: IC50 against A-tdt organoids
Description: (§1) Colonic crypts were isolated and colon organoids were generated from the following mouse genotypes on a C57Bl/6 background: 1. Rosa-LSL-TdTomato (hereafter LSL-tdt), 2. P53^f1/f1; LSL-tdt, and 3. LSL-KRAS^G12D/WT; P53^fl/fl; LSL-tdt mice. Subsequently, the pSECC-APC plasmid (carrying Cre, Cas9, and sgAPC) was transfected into each of the above three genotypes of colon organoids. This transfection strategy generated, in a single step, the following colorectal cancer organoids, including 1. APC^−/−; TdTomato^+ (A-tdt), 2. APC^−/−; P53^−/−; TdTomato^+ (AP-tdt), and 3. APC^−/−; KRAS^G12D/WT; P53^−/−; TdTomato^+ (AKP-tdt). Organoids of the desired genotype were selected for by Wnt/Rspo withdrawal for APC^−/−, Nutlin-3 addition for P53^−/−, and EGF withdrawal for KRAS^G12D.
(§2) Twenty four hours after seeding the organoids, a media change was performed and dose responses of oxaliplatin, doxorubicin and doxaliplatin were added. […] Organoids were cultured in Advanced DMEM/F12 supplemented with 2 mM GlutaMAX, 1% Penicillin-Streptomycin, 2% B27, and Y-27632 (10 μM).

[3] = system: A-tdt, AP-tdt, and AKP-tdt murine colorectal cancer organoids; assay: Cellular toxicity across the A-tdt, AP-tdt and AKP-tdt organoid series; type: cell-based; settings: series of A-tdt
Description: as §1
Twenty four hours after seeding the organoids, a media change was performed and dose responses of oxaliplatin, doxorubicin and doxaliplatin were added. Forty eight hours after treatment, cell growth was evaluated by resazurin assay. Organoids were cultured in Advanced DMEM/F12 supplemented with 2 mM GlutaMAX, 1% Penicillin-Streptomycin, 2% B27, and Y-27632 (10 μM).

[4] = system: doxorubicin-resistant A2780ADR human ovarian cancer cell line; assay: Cell growth, resazurin assay, A2780ADR; type: cell-based; settings: 72-h exposure
Description: as §4

U2OS human osteosarcoma = assay: Cell growth, resazurin assay, U2OS; type: cell-based; settings: 96-h exposure (table title); read-out: IC50 U2OS (bone)
Description: as §4

[5] = system: OVCAR8 human ovarian cancer cell line; assay: Cell growth, resazurin assay, OVCAR8; type: cell-based; settings: 72-h exposure
Description: as §4

[6] = system: HT-29 human colorectal adenocarcinoma; assay: Cell growth, resazurin assay, HT-29; type: cell-based; settings: 96-h exposure (table title); read-out: IC50 HT-29 (colon)
Description: as §4

[7] = system: APC−/−; KRASG12D/WT; P53−/−; MSH2−/− (AKP-MSH2) organoids; assay: Viability of AKP-MSH2 murine colorectal cancer organoids; type: cell-based
Description: (§3) To generate 4. APC^−/−; KRAS^G12D/WT; P53^−/−; (AKP) and 5. APC^−/−; KRAS^G12D/WT; P53^−/−; MSH2^−/− (AKP-MSH2) colon cancer organoids, colonic crypts were isolated and colon organoids were generated from the following mouse genotypes on a C57Bl/6 background: 4. LSL-KRAS^G12D/WT; P53^fl/fl mice and 5. LSL-KRAS^G12D; P53^fl/fl; MSH2^fl/fl mice. Subsequently, the pSECC-APC plasmid (carrying Cre, Cas9, and sgAPC) was transfected into each of the above two genotypes of colon organoids. Following pSECC-APC transfection, Wnt/Rspo withdrawal was performed and surviving (APC^−/−) single organoids were cloned and PCR genotyped for Cre mediated deletion of p53 and/or MSH2, and for Cre mediated activation of oncogenic KRAS^G12D.
as §2

[8] = system: A549 human lung carcinoma; assay: Cell growth, resazurin assay, A549; type: cell-based; settings: 96-h exposure (table title)
Description: as §4

[9] = system: A2780 human ovarian cancer cell line; assay: Cell growth, resazurin assay, A2780; type: cell-based; settings: A2780, 72-h exposure
Description: as §4

[10] = system: PC3 human prostate adenocarcinoma; assay: Cell growth, resazurin assay, PC3; type: cell-based; settings: 96-h exposure (table title)
Description: as §4

[11] = system: MDA-MB-231 human breast adenocarcinoma; assay: Cell growth, resazurin assay, MDA-MB-231; type: cell-based; settings: 96-h exposure (table title)
Description: as §4

[12] = system: HL60 human leukemia cell line; assay: Cell growth, resazurin assay, HL60; type: cell-based; settings: 96-h exposure (table title)
Description: as §4

[13] = system: APC−/−; P53−/−; TdTomato+ (AP-tdt) organoids; assay: Viability of AP-tdt murine colorectal cancer organoids, resazurin assay; type: cell-based; settings: 72-h exposure (table title); read-out: IC50 against AP-tdt organoids
Description: as §1, §2

[14] = system: APC−/−; KRASG12D/WT; P53−/− (AKP) organoids; assay: Viability of AKP murine colorectal cancer organoids; type: cell-based
Description: as §3, §2

[15] = system: OVCAR8-OXR oxaliplatin-resistant human ovarian cancer cell line; assay: Cell growth, resazurin assay, OVCAR8-OXR; settings: 72-h exposure; for Fold Resistance (IC50, OVCAR8OXR vs OVCAR8): based on IC50 values
Description: Cells were cultured in 10 mL of Advanced DMEM/F12 (ADMEM/F12), supplemented with 5% FBS, 2 mM GlutaMAX, and 1% Penicillin-Streptomycin in 10 cm tissue culture plates. Cells were then plated into 96-well plates with about 2.5×10^3 cells per well. Cells were plated with 200 μL per well of ADMEM/F12 supplemented with 5% FBS, 2 mM GlutaMAX, and 1% Penicillin-Streptomycin. […] The cells were then cultured for 72 hours following drug treatment, and cell growth was measured by resazurin assay.

[16] = system: A2780 human ovarian cancer cell line
Description: ICP-MS was performed on an Agilent 7900 ICP-MS in helium mode.
The cells in a six-well plate were treated with oxaliplatin, doxaliplatin, or a mixture of doxorubicin and oxaliplatin at indicated concentration in 2 mL of Advanced DMEM/F12 (ADMEM/F12), supplemented with 5% FBS, 2 mM GlutaMAX, and 1% Penicillin-Streptomycin. After three hours, the media were removed. The cells were washed with xl PBS buffer containing EDTA (100 μM, 4 mL×2). To each well, MilliQ water (1.0 mL) was added. After 15 min, the cells were suspended. A portion of the resulting cell lysate (900 μL) was transferred to an Eppendorf tube. The samples were frozen in liquid nitrogen and thawed at room temperature. This procedure was repeated for three times. The insoluble lysate was pelleted (10000 rpm for 10 min). […] Pierce 660 nm Protein solution (200 μL) was added to each well. An aliquot of the lysate (14.2 μL) was added to each well. The plate was shaken and read on a plate reader. The remaining samples were frozen at liquid nitrogen temperature and lyophilized. The dried material was digested with Aristar® ultrapure concentrated nitric acid (70%) at 70° C. for one hour. An aliquot of this solution (142 μL) was mixed with molecular biology grade water (2000 μL) and a terbium internal standard (40 μL, 100 ppb). The platinum content was then determined using an Agilent 7900 ICP-MS in helium mode. The concentration of platinum in the cells was normalized to measured protein concentration described above.

[17] = system: APC−/−; KRASG12D/WT; P53−/−; TdTomato+ (AKP-tdt) organoids; assay: Viability of AKP-tdt murine colorectal cancer organoids, resazurin assay; type: cell-based; settings: 72-h exposure (table title); read-out: IC50 against AKP-tdt organoids
Description: as §1, §2

COc1cccc2c1C(=O)c1c(O)c3c(c(O)c1C2=O)CC(O)(C(=O)CO)CC3OC1CC(N)C(N)C(C)O1.O=C1[O][Pt][O]C1=O (stereo not shown) [DoxPt, Doxaliplatin]
IC50 [1]: 280 nM
IC90 [1]: 380 nM
IC95 [1]: 410 nM
IC50 [2]: 460 nM
Cellular toxicity relative to oxaliplatin [3]: three to ten-fold higher cellular toxicity than oxaliplatin
IC50 [4]: 72 nM
IC90 [4]: 490 nM
IC95 [4]: 670 nM
IC50 (U2OS human osteosarcoma): 52 nM
IC50 [5]: 140 ± 10 nM
IC80 [5]: 370 ± 20 nM
IC50 [6]: 330 nM
IC50 ([7]; 72-h exposure, read-out: IC50 against AKP-MSH2 organoids): 78 nM
Potency relative to oxaliplatin (by IC50) ([7]; AKP-MSH2 organoids): 28 fold
IC50 [8]: 100 nM
IC50 [9]: 16 nM
IC90 [9]: 380 nM
IC95 [9]: 680 nM
IC50 [10]: 92 nM
IC50 [11]: 110 nM
IC50 [12]: 160 nM
IC50 [13]: 410 nM
IC50 ([14]; 72-h exposure, read-out: IC50 against AKP organoids): 110 nM
Potency relative to oxaliplatin (by IC50) ([14]; AKP organoids): 13 fold
Fold Resistance (IC50, OVCAR8OXR vs OVCAR8) [15]: 1.0 fold
Fold Resistance (IC50, OVCAR8OXR vs OVCAR8) ([15]; listed as doxaliplatin): no change in the IC50 value
Fold Resistance (IC80, OVCAR8OXR vs OVCAR8) ([15]; based on IC80 values): 0.6 fold
IC50 ([15]; read-out: IC50 OVCAR8OXR): 140 ± 10 nM
IC80 ([15]; read-out: IC80 OVCAR8OXR): 230 ± 10 nM
Platinum concentration in treated cells relative to oxaliplatin-treated cells [16]: approximately ten times higher than in oxaliplatin-treated cells
IC50 [17]: 430 nM
